The results in this text go back to patent publication US20220151962A1, “NOVEL INHIBITORS OF HISTONE DEACETYLASE 10” (Deutsches Krebsforschungszentrum, priority 2019, published 2022).

Each structure is given as a SMILES string. Several values for one entry are separate records, joined by “and”; a condition that tells them apart may be missing. Identical values can stand only once.

Test [1] deals with T1, HDAC10-nanoluciferase fusion in HeLa cells (Homo sapiens, UniProt Q969S8).
T1 sequence (Q969S8 1-669): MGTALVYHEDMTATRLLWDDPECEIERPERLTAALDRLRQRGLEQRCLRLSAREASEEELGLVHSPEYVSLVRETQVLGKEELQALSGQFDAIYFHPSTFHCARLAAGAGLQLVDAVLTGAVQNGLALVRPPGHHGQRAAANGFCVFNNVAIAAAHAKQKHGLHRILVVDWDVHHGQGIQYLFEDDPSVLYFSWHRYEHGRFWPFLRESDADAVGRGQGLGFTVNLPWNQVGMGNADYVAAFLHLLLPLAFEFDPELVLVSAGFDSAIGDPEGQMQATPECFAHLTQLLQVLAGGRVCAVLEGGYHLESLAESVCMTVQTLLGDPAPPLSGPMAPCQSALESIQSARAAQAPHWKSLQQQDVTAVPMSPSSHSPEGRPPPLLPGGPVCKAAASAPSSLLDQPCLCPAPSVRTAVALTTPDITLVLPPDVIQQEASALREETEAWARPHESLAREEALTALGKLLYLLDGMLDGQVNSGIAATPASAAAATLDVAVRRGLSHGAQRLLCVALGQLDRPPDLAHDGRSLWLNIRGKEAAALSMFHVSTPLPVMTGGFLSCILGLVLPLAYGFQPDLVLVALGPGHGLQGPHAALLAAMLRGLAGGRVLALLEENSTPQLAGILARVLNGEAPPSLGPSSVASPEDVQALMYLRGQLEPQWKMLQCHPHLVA
Put plainly: BRET intracellular target engagement assay, HDAC10.

For another test, the target named is T2, HDAC6 (Homo sapiens, UniProt Q9UBN7).
T2 construct: purchased BPS Bioscience 50006
T2 sequence (Q9UBN7 1-1215): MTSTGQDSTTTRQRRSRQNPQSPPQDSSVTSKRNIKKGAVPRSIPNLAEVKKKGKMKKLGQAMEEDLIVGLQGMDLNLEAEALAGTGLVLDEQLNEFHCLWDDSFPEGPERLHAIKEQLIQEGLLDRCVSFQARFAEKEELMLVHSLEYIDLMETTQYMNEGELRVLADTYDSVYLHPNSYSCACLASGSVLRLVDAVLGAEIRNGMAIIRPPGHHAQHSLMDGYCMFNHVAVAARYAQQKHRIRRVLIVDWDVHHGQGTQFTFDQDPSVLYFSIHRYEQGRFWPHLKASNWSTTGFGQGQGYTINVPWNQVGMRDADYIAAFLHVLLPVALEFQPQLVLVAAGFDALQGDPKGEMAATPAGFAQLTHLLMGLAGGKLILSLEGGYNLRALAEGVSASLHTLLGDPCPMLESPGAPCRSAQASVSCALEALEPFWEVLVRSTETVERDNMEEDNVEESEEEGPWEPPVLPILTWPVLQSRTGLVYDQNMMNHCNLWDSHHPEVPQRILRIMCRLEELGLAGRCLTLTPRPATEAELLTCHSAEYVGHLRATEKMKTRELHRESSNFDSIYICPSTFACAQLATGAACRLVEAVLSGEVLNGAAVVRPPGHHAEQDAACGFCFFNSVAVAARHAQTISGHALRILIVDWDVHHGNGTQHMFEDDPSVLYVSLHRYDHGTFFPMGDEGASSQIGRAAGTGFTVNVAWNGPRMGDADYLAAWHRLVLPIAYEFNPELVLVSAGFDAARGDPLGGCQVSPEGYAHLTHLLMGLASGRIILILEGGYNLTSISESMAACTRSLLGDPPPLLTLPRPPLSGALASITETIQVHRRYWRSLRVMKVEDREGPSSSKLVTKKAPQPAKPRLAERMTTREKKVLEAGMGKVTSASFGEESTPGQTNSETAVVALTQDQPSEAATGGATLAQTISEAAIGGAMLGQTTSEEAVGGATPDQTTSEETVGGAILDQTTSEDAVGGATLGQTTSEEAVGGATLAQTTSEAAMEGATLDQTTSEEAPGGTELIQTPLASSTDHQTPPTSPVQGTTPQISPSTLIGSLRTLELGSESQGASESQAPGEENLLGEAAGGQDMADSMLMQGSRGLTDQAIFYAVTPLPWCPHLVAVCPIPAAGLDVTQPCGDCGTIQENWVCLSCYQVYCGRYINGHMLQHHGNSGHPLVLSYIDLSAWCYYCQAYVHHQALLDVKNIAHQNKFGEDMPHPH
As to the kind of experiment: HDAC6 (ZMAL) fluorogenic activity assay. Format: biochemical.

The target of another test is T3, zebrafish HDAC10 (Danio rerio, UniProt F1QCV2).
T3 sequence (F1QCV2 1-675): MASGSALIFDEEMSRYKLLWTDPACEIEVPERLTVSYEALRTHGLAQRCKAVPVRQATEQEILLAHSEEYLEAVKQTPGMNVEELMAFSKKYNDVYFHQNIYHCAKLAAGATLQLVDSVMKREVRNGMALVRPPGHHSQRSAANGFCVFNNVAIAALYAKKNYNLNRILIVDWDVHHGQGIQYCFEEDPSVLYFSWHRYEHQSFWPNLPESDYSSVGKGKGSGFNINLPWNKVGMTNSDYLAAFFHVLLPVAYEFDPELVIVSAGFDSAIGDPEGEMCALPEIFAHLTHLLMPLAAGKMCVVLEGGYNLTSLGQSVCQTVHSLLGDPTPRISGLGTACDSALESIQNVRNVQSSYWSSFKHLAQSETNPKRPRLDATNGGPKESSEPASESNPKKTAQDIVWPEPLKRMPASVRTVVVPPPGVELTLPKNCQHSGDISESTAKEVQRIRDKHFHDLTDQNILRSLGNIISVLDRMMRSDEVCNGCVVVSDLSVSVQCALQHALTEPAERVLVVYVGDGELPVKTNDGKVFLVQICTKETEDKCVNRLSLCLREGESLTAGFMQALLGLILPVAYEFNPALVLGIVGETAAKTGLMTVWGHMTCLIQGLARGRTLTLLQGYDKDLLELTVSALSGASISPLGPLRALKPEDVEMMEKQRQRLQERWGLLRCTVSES
As to the kind of experiment: Zebrafish HDAC10 assay (zHDAC10), Ac-spermidine-AMC substrate. Format: biochemical. To be noted: for inhibition at 0.1 µM / inhibition at 1 µM / inhibition at 10 µM: read-out: zHDAC10 percent enzyme inhibition.

A further test deals with T4, HDAC8 (Homo sapiens, UniProt Q9BY41).
T4 sequence (Q9BY41 1-377): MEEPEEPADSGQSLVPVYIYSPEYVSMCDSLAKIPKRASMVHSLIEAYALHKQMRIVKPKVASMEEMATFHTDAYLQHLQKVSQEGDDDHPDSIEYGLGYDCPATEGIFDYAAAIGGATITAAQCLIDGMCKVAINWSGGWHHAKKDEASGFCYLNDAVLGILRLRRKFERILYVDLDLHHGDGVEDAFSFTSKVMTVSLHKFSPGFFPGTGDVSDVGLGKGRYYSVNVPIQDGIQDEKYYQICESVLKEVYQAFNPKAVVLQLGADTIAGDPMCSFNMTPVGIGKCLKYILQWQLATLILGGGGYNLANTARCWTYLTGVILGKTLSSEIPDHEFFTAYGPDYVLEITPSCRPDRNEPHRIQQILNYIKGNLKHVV
Put plainly: HDAC8 (FDL) Fluor de Lys assay. Format: biochemical. More on the design: obtained from C; Romier (academic laboratory, not a vendor). To be noted: for inhibition at 1 µM / inhibition at 10 µM: read-out: HDAC8 (FDL) percent enzyme inhibition.

The next test deals with T5, HDAC1 (Homo sapiens, UniProt Q13547).
T5 construct: purchased BPS Bioscience 50051
Put plainly: HDAC1 (ZMAL) fluorogenic activity assay. Format: biochemical. To be noted: read-out: HDAC1 (ZMAL) percent enzyme inhibition.

Another test deals with T6, TwinStrep-GST-HDAC10 (Homo sapiens, UniProt Q969S8).
T6 construct: made in house; host or cells: Sf21 insect cells (baculovirus, pFastBac1)
T6 sequence (Q969S8 1-669): T1 sequence (Q969S8 1-669)
Put plainly: HDAC10 TR-FRET assay (Tubastatin-AF647-Tracer displacement). Format: binding. To be noted: two separate measurements, each made in triplicate; read-out: HDAC10 FRET IC50.

The mark [2] stands for this setting: read-out: HDAC6 (ZMAL) percent enzyme inhibition.

T5 sequence (Q13547 whole entry): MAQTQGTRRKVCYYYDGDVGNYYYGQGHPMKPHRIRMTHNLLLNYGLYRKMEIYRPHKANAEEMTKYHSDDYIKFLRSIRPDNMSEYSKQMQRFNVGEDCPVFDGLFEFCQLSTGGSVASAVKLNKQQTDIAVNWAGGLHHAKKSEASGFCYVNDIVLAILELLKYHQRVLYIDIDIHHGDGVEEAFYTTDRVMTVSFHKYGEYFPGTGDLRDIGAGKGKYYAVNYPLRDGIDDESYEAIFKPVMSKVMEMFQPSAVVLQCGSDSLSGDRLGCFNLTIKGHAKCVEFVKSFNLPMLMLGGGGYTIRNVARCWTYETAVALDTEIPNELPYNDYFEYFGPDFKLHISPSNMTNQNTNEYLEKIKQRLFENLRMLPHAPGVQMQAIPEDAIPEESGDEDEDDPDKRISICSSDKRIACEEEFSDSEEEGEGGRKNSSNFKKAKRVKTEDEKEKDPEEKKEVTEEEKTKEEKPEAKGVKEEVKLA

On to `O=C(NO)C1CCN(CCc2cccc(Br)c2)CC1` [DH71, 1-(3-Bromophenethyl)-N-hydroxypiperidine-4-carboxamide], for which the IC50 in test [1] came to 391 nM. The inhibition at 1 µM at HDAC6 (setting [2]) is -2%; at zebrafish HDAC10 it was 10%; on HDAC8, 27%; at HDAC1 it was -5%. For the same compound, the inhibition at 10 µM at HDAC6 (setting [2]) worked out at 28%; on zebrafish HDAC10 it was 61%; at HDAC8, 70%; at HDAC1, 6%. Also, the inhibition at 0.1 µM on zebrafish HDAC10 came out at 0%.
As to `O=C(NO)C1CCN(CCc2ccccc2)CC1` [DH22, N-Hydroxy-1-phenethylpiperidine-4-carboxamide], the inhibition at 1 µM on HDAC6 (setting [2]) was -2%; at zebrafish HDAC10, 20%; on HDAC8 it was 27%; at HDAC1 it was -1%. Besides, the inhibition at 10 µM at HDAC6 (setting [2]) stood at 17%; at zebrafish HDAC10 it was 80%; at HDAC8, 56%; at HDAC1, 7%. Moreover, on zebrafish HDAC10, the inhibition at 0.1 µM is 13%. Also, at TwinStrep-GST-HDAC10, the IC50 was 175 nM and 260 nM.
Regarding `O=C(NO)C1CCN(CCNCc2ccc(Br)cc2)CC1` [DH88, 1-(2-((4-Bromobenzyl)amino)ethyl)-N-hydroxypiperidine-4-carboxamide], the figures for the IC50 against HDAC6, on zebrafish HDAC10 and against HDAC8 were 15000 ± 4000 nM, 37 ± 4 nM and 700 ± 50 nM, respectively. The inhibition at 1 µM at HDAC1 is -8%. Further, the inhibition at 10 µM on HDAC1 worked out at 10%.
With `O=C(NO)C1CCN(Cc2ccc(-c3ccccc3)cc2)CC1` [DH35, 1-([1,1′-Biphenyl]-4-ylmethyl)-N-hydroxypiperidine-4-carboxamide], the inhibition at 1 µM is 11% at HDAC6 (setting [2]), 24% on zebrafish HDAC10, 37% on HDAC8 and 5% at HDAC1. The inhibition at 10 µM was found to be 57% at HDAC6 (setting [2]), 69% at zebrafish HDAC10, 70% at HDAC8 and 35% at HDAC1. Further, the inhibition at 0.1 µM at zebrafish HDAC10 came to 7%. At TwinStrep-GST-HDAC10, the IC50 is 1780 nM and 2560 nM.
For the compound `O=C(NO)C1CCN(CC(c2ccccc2)c2ccccc2)CC1` [DH40, 1-(2,2-Diphenylethyl)-N-hydroxypiperidine-4-carboxamide], the inhibition at 1 µM on HDAC6 (setting [2]) is 19%; on zebrafish HDAC10 it was 9%; at HDAC8, 42%; at HDAC1 it was -7%. Also, the inhibition at 10 µM at HDAC6 (setting [2]) amounted to 65%; on zebrafish HDAC10, 27%; at HDAC8, 75%; on HDAC1, 8%. In addition, the inhibition at 50 µM on HDAC6 (at 50 μM, read-out: HDAC6 (ZMAL) percent enzyme inhibition) amounted to 88%; at HDAC1 (at 50 μM) it was 24%. Moreover, the inhibition at 0.1 µM at zebrafish HDAC10 worked out at 1%. The IC50 on TwinStrep-GST-HDAC10 is 2320 nM and 2970 nM.
`O=C(NO)C1CCN(Cc2ccccc2)CC1` [DH25, 1-Benzyl-N-hydroxypiperidine-4-carboxamide]: the inhibition at 1 µM at HDAC6 (setting [2]) is 22%; on zebrafish HDAC10, 15%; at HDAC8 it was 36%; at HDAC1, 8%. Besides, the inhibition at 10 µM at HDAC6 (setting [2]) was determined as 46%; at zebrafish HDAC10, 50%; on HDAC8, 61%; on HDAC1 it was 18%. The inhibition at 0.1 µM on zebrafish HDAC10 amounted to 9%. The half-maximal inhibitory concentration (IC50) on TwinStrep-GST-HDAC10 is 2450 nM and 3430 nM.
With `O=C(NO)C1CCN(CCc2ccc(Br)cc2)CC1` [DH67, 1-(4-Bromophenethyl)-N-hydroxypiperidine-4-carboxamide], it took 375 nM to reach half-maximal inhibition in test [1] (IC50). Moreover, the inhibition at 1 µM on HDAC6 (setting [2]) is -4%; on zebrafish HDAC10 it was 40%; at HDAC8, 33%; at HDAC1 it was 7%. Further, the inhibition at 10 µM is 18% on HDAC6 (setting [2]), 67% on zebrafish HDAC10, 69% at HDAC8 and 6% on HDAC1. In addition, the inhibition at 0.1 µM on zebrafish HDAC10 was 7%.
